Test results taken from patent US5739302A, “Manufacture and use of novel glycosides of catechol estrogens” (priority 1991, dated 1998).
Values after ≈ are worked out from the molar mass of the structure shown. Read-outs that look alike come from different tables or passages of the source.

Tests used:
Solubility in water = assay type: physicochemical
Method: For example, the volume of water required to dissolve 1 mg of various glycosides is as following; 2 to 3 ml for 17-glucoside, 2 ml for 17-maltoside, 0.7 ml for 2-glucoside, and 3 ml for 3-glucoside, while 1 mg of 2-hydroxyestradiol cannot be dissolved in 3 ml of water. Accordingly, the glycosides obtained in the present invention provide a way to prepare an injection containing the same.

rat brain homogenate = experiment: Inhibitory effect on the lipid peroxidation of rat brain homogenate (thiobarbituric acid method); assay type: biochemical; conditions: for amount of lipid peroxides in terms of malondialdehyde: 37° C.
Method: (Inhibitory effect of 2-hydroxyestradiol 2-glucoside on the lipid peroxidation of rat brain homogenate)
2-Hydroxyestradiol 2-(β-D-glucopyranoside) (2-OHE2 2-Glu) obtained according to the method of this invention (Example 16) was dissolved in water to give a concentration of 1 mM or 0.5 mM. The reaction mixture contains the followings in a final volume of 2 ml; 1.98 ml of rat brain homogenate (10 mg protein/ml) and 2-OHE2 2-Glu at a concentration of 5 μM or 10 μM. After incubation at 37° C., lipid peroxide level was determined by the thiobarbituric acid method.
Values in Table 2 indicate the amount of lipid peroxides (nmol/mg protein
in terms of malondialdehyde.

[1] = Acute toxicity (intraperitoneal injection); assay type: in vivo, mouse; conditions: mouse, in vivo, ip; male ddY mice, intraperitoneal; 2 weeks
Method: (§1) Male mice of ddY strain were received 2-OHE2 17-Glu or 2-OHE2 2-Glu by an intraperitoneal injection at doses of 250 mg, 500 mg, 750 mg, or 1000 mg/kg body weight.

Male mice of ddY strain = experiment: Acute toxicity (intraperitoneal injection); assay type: in vivo, mouse; conditions: 250, 500, 750 or 1000 mg/kg i.p.; observation period of 2 weeks
Method: as §1

rat liver homogenate = experiment: Inhibitory effect on the lipid peroxidation of rat liver homogenate (thiobarbituric acid method); assay type: biochemical; conditions: 10 μM; 4 hours at 37° C.
Method: (Inhibitory effect of 2-hydroxyestradiol 2-glucoside on the lipid peroxidation of rat liver homogenate)
A rat liver homogenate was prepared in 4 volume of 0.15M KCl .2-OHE2 2-Glu was dissolved in distilled water and 2-OHE2, in 1% DMSO, to give a final concentration of 1 mM. The reaction mixture contained the followings in a final volume of 2 ml; 1.98 ml of rat liver homogenate (10 mg protein/ml) and 10 μM either 2-PHE2 2-Glu or 2-OHE2. As blank tests, the same volume of distilled water or 1% DMSO was added in place of 2-OHE2 2-Glu or 2-OHE2. After incubation for 4 hours at 37° C., lipid peroxide level was determined by the thiobarbituric acid method.

[2] = tested on: low-density lipoprotein (LDL); experiment: Inhibitory effect on the lipid peroxidation of low-density lipoprotein (CuSO4-induced; methylene blue method); assay type: biochemical, rabbit (hypercholesterolemic); conditions: for amount of lipid peroxides: LDL + CuSO4, 5 nmol compound in 1 ml
Method: (Inhibitory effect of 2-hydroxyestradiol 17-glucoside on the lipid peroxidation of low-density lipoprotein)
Low-density lipoprotein (LDL) was prepared from hypercholesterolemic rabbit serum. 2-Hydroxyestradiol 17-(β-D-glucopyranoside) (2-OHE2 17-Glu) obtained according to the method of this invention (Example 4 ) was dissolved in distilled water and 2-hydroxyestradiol (2-OHE2) as a reference compound, in dimethylsulfoxide (DMSO), to give a final concentration of 500 μM. The reaction mixture contained the followings in a final volume of 1 ml: 500 μg of LDL; 5 nmol of CuSO4; and 5 nmol of either 2-OHE2 17-Glu or 2-OHE2. As blank tests, distilled water or DMSO was added in place of 2-OHE2 17-Glu or 2-OHE2. After incubation for a definite time at […], the amount of lipid hydroperoxides generated was determined by the methylene blue method.
Values in TABLE 1 indicate the amount of lipid peroxides (nmol/mg

red blood cells = experiment: Incorporation of glycosides of 2-hydroxyestradiol into red blood cells; assay type: in vitro ADME
Method: (§2) (Incorporation of glycosides of 2-hydroxyestradiol into red blood cells)
(§3) The reaction mixture contained 0.2 nmol of 2-OHE2, 2-OHE2 17-Glu, or 2-hydroxyestradiol 17-(β-maltoside) (2-OHE2 17-Mal, obtained in Example 5) in 0.1 ml of 0.2% DMSO-0.1% ascorbic acid in phosphate buffered saline (PBS) and 0.9 ml of suspension of red blood cells in PBS. After incubation at 37° C. for several intervals, the mixture was centrifuged and supernatant fraction was obtained, and then the amount of each glycoside of 2-hydroxyestradiol remained in the supernatant was determined by HPLC.
(§4) Values in Table 3 indicate residual amount (%) in the incubation medium.

[3] = as above; assay type: in vitro ADME; conditions: red blood cell suspension, 0.2 nmol compound, 37° C., read-out: residual amount in the incubation medium
Method: as §2, §3, §4

| Structure (SMILES) | solubility (Solubility in water) [mL] | solubility (Solubility in water; water) [µg/mL] | LD50 at 336 h [1] [mg/kg] | abnormal symptoms (in words) (Male mice of ddY strain) | survival (in words) (Male mice of ddY strain) | inhibition of the lipid peroxidation (rat liver homogenate) [%] | amount of lipid peroxides ([2]; incubation 1 hr) [nmol/mg protein] | amount of lipid peroxides ([2]; incubation 2 hr) [nmol/mg protein] | amount of lipid peroxides ([2]; incubation 3 hr) [nmol/mg protein] | amount of lipid peroxides ([2]; incubation 4 hr) [nmol/mg protein] | incorporation into red blood cells (in words) (red blood cells) | further results |
| --- | --- | --- | --- | --- | --- | --- | --- | --- | --- | --- | --- | --- |
| C[C@]12CC[C@@H]3c4cc(O)c(O[C@@H]5O[C@H](CO)[C@@H](O)[C@H](O)[C@H]5O)cc4CC[C@H]3[C@@H]1CC[C@@H]2O [2-Hydroxyestradiol 3-(β-D-glucopyranoside)] | 3 | 333 (≈ 740 µM) |  |  |  |  |  |  |  |  |  |  |
| C[C@]12CC[C@@H]3c4cc(O[C@@H]5O[C@H](CO)[C@@H](O)[C@H](O)[C@H]5O)c(O)cc4CC[C@H]3[C@@H]1CC[C@@H]2O [2-OHE2 2-Glu, 2-Hydroxyestradiol 2-(β-D-glucopyranoside)] | 0.5 to 1 | 1430 (≈ 3170 µM) | > 100 | no abnormal symptom was found | All mice survived | 77 |  |  |  |  |  | inhibition of the lipid peroxidation (in words) (rat brain homogenate; 5 μM and 10 μM): strongly inhibited the lipid peroxidation in a concentration dependent manner; amount of lipid peroxides in terms of malondialdehyde (rat brain homogenate; 5 μM, incubation 0 hr): 0.271 nmol/mg protein; amount of lipid peroxides in terms of malondialdehyde (rat brain homogenate; 5 μM, incubation 1 hr): 1.124 nmol/mg protein; amount of lipid peroxides in terms of malondialdehyde (rat brain homogenate; 5 μM, incubation 2 hr): 1.867 nmol/mg protein; amount of lipid peroxides in terms of malondialdehyde (rat brain homogenate; 5 μM, incubation 4 hr): 3.167 nmol/mg protein; amount of lipid peroxides in terms of malondialdehyde (rat brain homogenate; 10 μM, incubation 0 hr): 0.271 nmol/mg protein; amount of lipid peroxides in terms of malondialdehyde (rat brain homogenate; 10 μM, incubation 1 hr): 0.905 nmol/mg protein; amount of lipid peroxides in terms of malondialdehyde (rat brain homogenate; 10 μM, incubation 2 hr): 1.326 nmol/mg protein; amount of lipid peroxides in terms of malondialdehyde (rat brain homogenate; 10 μM, incubation 4 hr): 1.534 nmol/mg protein |
| C[C@]12CC[C@@H]3c4cc(O)c(O)cc4CC[C@H]3[C@@H]1CC[C@@H]2O[C@@H]1O[C@H](CO)[C@@H](O)[C@H](O)[C@H]1O [2-OHE2 17-Glu, 2-Hydroxyestradiol 17-(β-D-glucopyranoside)] | 2 to 3 | 333 to 500 (≈ 740 to 1110 µM) | > 100 | no abnormal symptom was found | All mice survived |  | 8.93 | 19.48 | 24.76 | 32.17 | markedly retarded as compared with that of 2-OHE2 | inhibitory potency on LDL peroxidation (in words) ([2]; compared with 2-OHE2): the same to that of 2-OHE2; inhibition of the peroxidation of LDL (in words) ([2]; in words): clearly inhibited the peroxidation of LDL |
| C[C@]12CC[C@@H]3c4cc(O)c(O)cc4CC[C@H]3[C@@H]1CC[C@@H]2O[C@@H]1O[C@H](CO)[C@@H](O[C@H]2O[C@H](CO)[C@@H](O)[C@H](O)[C@H]2O)[C@H](O)[C@H]1O [2-OHE2 17-Mal, 2-hydroxyestradiol 17-(β-maltoside)] | 2 | 500 (≈ 816 µM) |  |  |  |  |  |  |  |  | markedly retarded as compared with that of 2-OHE2 |  |
| C[C@]12CC[C@@H]3c4cc(O)c(O)cc4CC[C@H]3[C@@H]1CC[C@@H]2O [Example 2-OHE2, 2-hydroxyestradiol, reference compound] |  |  |  |  |  | 73 | 17.45 | 24.55 | 27.29 | 30.74 |  | solubility (Solubility in water; per 1 mg, water, read-out: volume of water required to dissolve 1 mg): < 333 µg/mL; remaining at 0.5 min ([3]; 0.5 min): 4.4%; remaining at 1 min ([3]; 1.0 min): 4.4%; remaining at 2 min ([3]; 2.0 min): 3.7% |
